According to patent US4285858A, “Vasopressin analogs” (Mt. Sinai School of Medicine of the City University of N.Y., priority 1979, dated 1981):
Where a SMILES comes first, the peptide text is derived from it. Bridges are numbered along the chain shown (N, C = ends). [ ]: non-standard residue; d: D form. Mpa = O=C(O)CCS

What was measured:
Factor VIII [1] = assay: Factor VIII radioimmunoassay (F-VIII(RIA)) on blood of dogs after intravenous injection; type: in vivo; conditions: dog, i.v.; for F-VIII 30' (RIA): 30 minutes; for F-VIII 60' (RIA): 60 minutes; for F-VIII 120' (RIA): 120 minutes
Description: (§1) K., Mulder, J. L., Kidney Internat. 8:292,1975. The increase in Factor VIII after administration were analyzed in male canine citrated plasma. The Factor VIII were estimated by both the classical clotting assay (F-VIII(C)) and by radioimmunoassay (F-VIII(RIA)), both described in […]., Cort, J. H., Cash, J. D., Brit. H. Haematol. 41:437, 1979. […] The intravenous or subcutaneous doses would be in the range of 0.02 to 1.0 μg/kg. The intranasal dose range would be ten times the former dose. […] The compounds from Examples 4-8 were tested by intravenously injecting the compounds in physiological saline into a normal dog which was anesthetized using sodium pentothal. Blood samples were withdrawn from each dog after 30, 60 and 120 minutes and tested. […] The F-VIII factor level was also determined by radioimmunoassay(RIA). The results of these tests are reported in Table I. Desmopressin (10 μg/kg) was used as a reference injection peptide.

anesthetized rats [2] = assay: Antidiuretic effect by intravenous injection into anesthetized rats; type: in vivo, rat; conditions: for Antidiuretic Potencies (peak): rats, mean
Description: (§2) The vasopressin analogs of this invention were tested for antidiuretic and pressor effects by intravenous injection into anesthetized rats using techniques described in Cort, J. H., Schuck, O., Stribrna, J. Skopkova, J., Jost. K., Mulder, J. L., Kidney Internat. 8:292,1975. The increase in Factor VIII after administration were analyzed in male canine citrated plasma. The Factor VIII were estimated by both the classical clotting assay (F-VIII(C)) and by radioimmunoassay (F-VIII(RIA)), both described in Prowse, C. V., Sas, G., Gader, A. M. A., Cort, J. H., Cash, J. D., Brit. H. Haematol. 41:437, 1979. The vasopressin analogs are suitable for administration to mammals by intravenous or subcutaneous injection containing 100 μg to 1 mg peptide/ml. The intravenous or subcutaneous doses would be in the range of 0.02 to 1.0 μg/kg. The intranasal dose range would be ten times the former dose.
(§3) The vasopressin analogs were injected intravenously into normal male dogs anesthetized with sodium pentothal. Blood was withdrawn from each dog after 30, 60 and 120 minutes and analyzed for F-VIII. Rats were also rested for antidiuretic and pressor activity due to the vasopressin analogs of this invention.

anesthetized rats [3] = assay: Pressor effect by intravenous injection into anesthetized rats; type: in vivo, rat; conditions: for Pressor Potencies (peak): rats, mean
Description: as §2, §3

Factor VIII [4] = assay: Factor VIII classical clotting assay (F-VIII(C)) on blood of dogs after intravenous injection; type: in vivo; conditions: dog, i.v., pre-injection blood = 100%; for F-VIII 30' (c): 30 minutes; for F-VIII 60' (c): 60 minutes; for F-VIII 120' (c): 120 minutes
Description: as §1

F-VIII and PA = conditions: mammals; literature; cited from earlier work
F-VIII = conditions: cited from earlier work
[5] = 5 μg/kg, hemophiliac dog plasma = 0%

Molecule | F-VIII 30' (RIA) (Factor VIII [1]; 10 μg/kg) [%] | F-VIII 60' (RIA) (Factor VIII [1]; 10 μg/kg) [%] | F-VIII 120' (RIA) (Factor VIII [1]; 10 μg/kg) [%] | Antidiuretic Potencies (peak) (anesthetized rats [2]) [IU/mg] | Pressor Potencies (peak) (anesthetized rats [3]) [IU/mg] | F-VIII 30' (c) (Factor VIII [4]; 10 μg/kg) [%] | F-VIII 60' (c) (Factor VIII [4]; 10 μg/kg) [%] | F-VIII 120' (c) (Factor VIII [4]; 10 μg/kg) [%] | effect on blood levels of F-VIII and PA (F-VIII and PA) | also measured
C[C@@H](NC(=O)[C@H](CCCNC(=N)N)NC(=O)[C@@H]1CCCN1C(=O)[C@@H]1CSSCCC(=O)N[C@@H](Cc2ccc(O)cc2)C(=O)N[C@@H](Cc2ccccc2)C(=O)N[C@@H](CCC(N)=O)C(=O)N[C@@H](CC(N)=O)C(=O)N1)C(N)=O [Example 4, 1-Desamino-[9-D-Ala-NH]-arginine-vasopressin] ([Mpa]YFQNCPR[dA]-NH2; disulfide 1-6) | 124 | 132 | 163 | 1.8 | 0.15 | 230 | 250 | 240 | – | F-VIII 30' (RIA) (Factor VIII [1]; 5 μg/kg): 115%; F-VIII 60' (RIA) (Factor VIII [1]; 5 μg/kg): 125%; F-VIII 120' (RIA) (Factor VIII [1]; 5 μg/kg): 130%; F-VIII 30' (c) (Factor VIII [4]; [5]): 120%; F-VIII 60' (c) (Factor VIII [4]; 5 μg/kg): 160%; F-VIII 120' (c) (Factor VIII [4]; 5 μg/kg): 170%
angiotensin II (DRVYIHPF; Angiotensin-2; UniProt P01019 25-32, looked up) [other pressor substance] | – | – | – | – | – | – | – | – | no effect on increasing F-VIII and PA in blood | –
(1-desamino-6-monocarba[9-D-Ala-NH2 ]-arginine)-vasopressin [Example 7] | 125 | 165 | 180 | 1.9 | 0.18 | 240 | 255 | 266 | – | F-VIII 30' (RIA) (Factor VIII [1]; 5 μg/kg): 140%; F-VIII 60' (RIA) (Factor VIII [1]; 5 μg/kg): 150%; F-VIII 120' (RIA) (Factor VIII [1]; 5 μg/kg): 155%; F-VIII 30' (c) (Factor VIII [4]; [5]): 145%; F-VIII 60' (c) (Factor VIII [4]; 5 μg/kg): 190%; F-VIII 120' (c) (Factor VIII [4]; 5 μg/kg): 210%
C[C@@H](NC(=O)[C@H](CCCNC(=N)N)NC(=O)[C@@H]1CCCN1C(=O)[C@@H]1CSSC[C@H](N)C(=O)N[C@@H](Cc2ccc(O)cc2)C(=O)N[C@@H](Cc2ccccc2)C(=O)N[C@@H](CCC(N)=O)C(=O)N[C@@H](CC(N)=O)C(=O)N1)C(N)=O [Example 5, ([9-D-Ala-NH2]-arginine-vasopressin] | 115 | 110 | 115 | 1.2 | 0.10 | 225 | 128 | 115 | – | F-VIII 30' (RIA) (Factor VIII [1]; 5 μg/kg): 110%; F-VIII 60' (RIA) (Factor VIII [1]; 5 μg/kg): 107%; F-VIII 120' (RIA) (Factor VIII [1]; 5 μg/kg): 98%; F-VIII 30' (c) (Factor VIII [4]; [5]): 115%; F-VIII 60' (c) (Factor VIII [4]; 5 μg/kg): 120%; F-VIII 120' (c) (Factor VIII [4]; 5 μg/kg): 105%
NC(=O)CC[C@@H]1NC(=O)[C@H](Cc2ccccc2)NC(=O)[C@H](Cc2ccc(O)cc2)NC(=O)[C@@H](N)CSSC[C@@H](C(=O)N2CCC[C@H]2C(=O)N[C@@H](CCCN=C(N)N)C(=O)NCC(N)=O)NC(=O)[C@H](CC(N)=O)NC1=O [vasopressin] | – | – | – | – | – | – | – | – | can increase the blood levels of both PA and F-VIII | –
NC(=O)CC[C@@H]1NC(=O)[C@H](Cc2ccccc2)NC(=O)[C@H](Cc2ccc(O)cc2)NC(=O)CCSSC[C@@H](C(=O)N2CCC[C@H]2C(=O)N[C@H](CCCN=C(N)N)C(=O)NCC(N)=O)NC(=O)[C@H](CC(N)=O)NC1=O [Desmopressin, 1-desamino-[8-D-ARG]-vasopressin, reference compound] | 126 | 134 | 164 | 1100 | 0.15 | 220 | 250 | 210 | highly potent and prolonged effects on F-VIII and PA release | effect on low F-VIII levels in patients (F-VIII; hemophilia A and B, von Willebrand's disease, literature): increases low levels of F-VIII toward normal; antidiuretic side effect in clinical use (F-VIII; human, in vivo): undesired water retention by the patients; antidiuretic activity (anesthetized rats [2]): more than 1000 IU/mg; pressor activity (anesthetized rats [3]): less than 0.2 IU/mg
CC[C@H](C)[C@@H]1NC(=O)[C@H](Cc2ccc(O)cc2)NC(=O)[C@@H](N)CSSC[C@@H](C(=O)N2CCC[C@H]2C(=O)N[C@@H](CC(C)C)C(=O)NCC(N)=O)NC(=O)[C@H](CC(N)=O)NC(=O)[C@H](CCC(N)=O)NC1=O [oxytocin] | – | – | – | – | – | – | – | – | no effect on increasing F-VIII and PA in blood | –
C[C@H](NC(=O)[C@@H](CCCNC(=N)N)NC(=O)[C@@H]1CCCN1C(=O)[C@@H]1CSSCCC(=O)N[C@@H](Cc2ccc(O)cc2)C(=O)N[C@@H](Cc2ccccc2)C(=O)N[C@@H](CCC(N)=O)C(=O)N[C@@H](CC(N)=O)C(=O)N1)C(N)=O [Example 8, (1-desamino-[8-D-Arg, 9-Ala-NH2]arginine)-vasopressin] ([Mpa]YFQNCP[dR]A-NH2; disulfide 1-6) | 120 | 145 | 155 | 2.23 | 0.09 | 155 | 150 | 140 | – | –
arginine-vasotocin | – | – | – | – | – | – | – | – | far less active | –
CNCC(O)c1ccc(O)c(O)c1 (stereo not drawn) [adrenaline] | – | – | – | – | – | – | – | – | can increase the blood levels of both PA and F-VIII | –
1-desamino-6-monocarba-[8 -D-Arg]-vasopressin [dCDAVP] | – | – | – | – | – | – | – | – | highly potent and prolonged effects on F-VIII and PA release | –
